# Reference: patent US20160115540A1, “PRODRUGS AND DRUGS” (Biogen MA Inc., priority 2013, published 2016)
# Where a name gives a salt, the structure may show the parent alone.
# Test system: brain
# Experiment: Transcriptional profiling, multi-dosing regimen, naïve mice: brain
# Type: in vivo
# Conditions: for FC: BRAIN_HEMI, 100DMF-vs-Veh; for FC, Depp (1433836_PM_a_at): BrainHemi, multi-dosing; for Number of differentially expressed genes identified: Brain Hemi: Table 13: Naïve, Single Dose (so in the source), 12 h after last dosing
# Experimental: In vivo, DMF is rapidly metabolized to monomethyl fumarate (MMF). […] Animals were exposed to CO2 and whole blood collected via cardiac puncture. Two 100 μl aliquots of whole blood were collected in 1.5 mL microcentrifuge tubes and snap frozen in liquid nitrogen. Peripheral (liver, spleen, kidney and jejunum) and CNS brain (cerebellum, hippocampus, striatum and cortex) tissues were harvested and snap frozen in liquid nitrogen, with special care taken to collect tissues of similar size and from the same location. All samples were stored at -80° C. until RNA extraction was conducted. For RNA preparation, frozen tissues were placed in 2 mL RNAse-free 96-well blocks with 1.5 mL QIAzol Lysis Reagent (QIAgen) and a 3.2 mm stainless steel bead (BioSpec Products, Bartlesville, Okla.). Tissues were disrupted for four cycles of 45 seconds in a Mini-Beadbeater (Biospec Products). RNA was extracted in chloroform and the aqueous phase was mixed with an equal volume of 70% ethanol. Extracted RNA was applied to RNeasy 96 plates and purified by the spin method according to the manufacturer's protocol (RNeasy 96 Universal Tissue Protocol, QIAgen, Hilden Germany). […] Two micrograms of biotin labeled […] probe were hybridized to Affymetrix GeneChip Affymetrix HT_MG-430_PM plate arrays with modified conditions as described in […] et al. Washing and staining of the hybridized arrays were completed as described in the GeneChip Expression analysis technical manual for HT plate arrays using the Genechip® Array Station (Affymetrix, Santa Clara, Calif.) with modifications as described in […] et al. The processed GeneChip® plate arrays were scanned using GeneTitan scanner (Affymetrix, Santa Clara, Calif.). Affymetrix scans were subject to quality control (QC) measures. These tests included a visual inspection of the distribution of raw signal intensities and an assessment of RNA degradation, relative log expression (RLE), and normalized unsealed standard error (NUSE). All sample scans that passed these QC metrics were included in the analysis. All CEL files were subjected to GC-content-based Robust Multi-array Average (GCRMA) normalization (version 2.20.0) (Irizarry R A, et al. Nucleic Acids Res 2003; 31:e15; Li C, et al. […] Stat Appl Genet Mol Biol 2004; 3:Article3). […] Springer Science+Business Media 2005). Changes in gene expression were studied by applying a linear modeling approach to fit gene expression levels according to the defined groups of samples (e.g. DMF-, MMF-, and Vehicle-treated animals) and Bayesian posterior error analysis as implemented by Smyth (Smyth G K. Stat Appl Genet Mol Biol 2004; 3:Article3). The comparisons considered included: DMF-vs-MMF, DMF-vs-Vehicle, and MMF-vs-Vehicle. […] Very few DEGs are observed in blood and tissues derived from the central nervous system (brain, cerebellum, cortex, striatum, and spinal cord).
structure (smiles),measurement,setting,value
"COC(=O)/C=C/C(=O)OC [DMF, dimethyl fumarate]",FC,2310079F09Rik 1433201_PM_at,2.00
same,FC,8430408G22Rik 1433836_PM_a_at,1.77
same,"FC, Depp (1433836_PM_a_at)",DMF-vs-MMF,1.78
same,"FC, Depp (1433836_PM_a_at)",DMF-vs-Vehicle,1.77
same,FC,Pvrl3 1457257_PM_x_at,−1.69
same,Number of differentially expressed genes identified: Brain Hemi,100 mpk DMF-vs-90 mpk MMF,8
same,Number of differentially expressed genes identified: Brain Hemi,100 mpk DMF-vs-Vehicle,3
same,DEPP gene induction (mRNA),"brain, multi-dosing regimen, naïve mice",robustly induced
